Test [1] relates to BAX-/-MEFs. Description: Caspase 3/7 assay, STS-induced apoptosis, MEFs expressing only BAK. The test is classed as cell-based, mouse. As to conditions: 3 µM STS, 6 hr. An excerpt: (§1) FIGS. 7A, 7B, 7C, 7D, 7E, and 7F are a set of diagrams showing that eltrombopag inhibits BAX translocation and BAX-mediated apoptosis in cells. […] BAX translocation is based on antibody-based detection of BAX and mitochondrial protein TOMM20. Representative confocal micrographs from three independent biological experiments. Scale bar, 20 µm. […] Data represent ±SEM of three independent biological replicates. Two-sided t test, ****P < 0.0001; ***P < 0.001; **P < 0.01; *P < 0.05; ns, P > 0.05. […] Actin and VDAC are loading controls for cytosolic and mitochondrial fractions, respectively. FIGS. 7D and 7E show a caspase 3/7 assay of BAK-/- mouse embryonic fibroblasts (MEFs) (FIG. 7D) and BAX-/-MEFs (FIG. 7E) in response to 3 µM STS and the presence or absence of various doses of EO for 6 hr. […]
(§2) It is important to note that THPO-receptor agonist activity of EO is highly specific to the human and chimpanzee THPO-receptors, making mouse cell lines ideal for studying EO modulation of BAX-dependent activity independent of THPO-mediated effects (Erickson-Miller, C. L. et al. Stem Cells 27, 424-430 (2009)). First, mitochondrial cytochrome c release, a hallmark of BAX activation and BAX-dependent apoptosis, was evaluated. […] Next, mitochondrial translocation of cytosolic BAX upon treatment with either BIM BH3 or staurosporine (STS) in BAK KO MEFs was evaluated.

Test [2] relates to 3T3 cells. Put plainly: Caspase 3/7 activation assay, ABT-263 + S63845. The test is classed as cell-based, murine. As to conditions: 1 µM ABT-263 and 1 µM S63845, 4 hr. The procedure: (§3) 3T3 cells were maintained in media identical to that of MEFs. 3T3 cells were seeded (1×10^4 cells/well) in 96-well opaque plates for 18-24 hr. The media was removed and replaced with media lacking FBS, and cells were treated with EO as a 10X stock in H2O at the indicated doses for 2 hr before addition of 10% FBS. Cells were then treated with 1 µM each of ABT-263 and S63845. Caspase 3/7 activation was measured at 4 hr by addition of the Caspase-Glo 3/7 chemiluminescence reagent in accordance with the manufacturer’s protocol (Promega). Luminescence was detected by an F200 PRO microplate reader (TECAN). Percentage caspase activation was normalized to ABT-263 + S63845 alone (100%) and untreated cells (0%). Viability assays were performed at 24 hr by addition of CellTiter-Glo according to the manufacturer’s protocol (Promega). Luminescence was detected by an F200 PRO microplate reader (TECAN). Percentage viability was normalized to untreated cells (100%).
(§4) Next, whether EO is capable of rescuing cell death in cells expressing both BAX and BAK was determined. 3T3 cells, a murine fibroblast cell line, were treated with a combination of BH3-mimetics navitoclax (ABT-263) and S63845, which only in combination cause significant cytotoxicity in fibroblast cells.

The test system of test [3] is BAK KO (BAK-/-) MEFs. Put plainly: Cytochrome c release assay (ELISA), BAK KO MEFs. On the set-up: dose or concentration left out as unconfirmed. Format: cell-based, mouse. The following applies: BIM-BH3 peptide, EO pretreatment 2 hours. The procedure:
BAX^-/^- or BAK^-/^- mouse embryonic fibroblasts were maintained in DMEM (Life Technologies) supplemented with 10% FBS, 100 U/mL penicillin/streptomycin, 2 mM I-glutamine, and 0.1 mM MEM nonessential amino acids. MEFs (5×10^4 cells/well) were seeded in a 96 well clear u-bottom plate for 18-24 hr. Media was removed and replaced with media lacking FBS, and cells were treated with varying doses of EO for 2 hours at 37° C. […] Cytochrome c release was determined by decanting 50 µL of the supernatant and analyzing with the rat/mouse cytochrome c quantikine ELISA kit (R&D Systems, MCTO) according to the recommended protocol. […]
as §2
A general note: ELISA stands for enzyme-linked immunosorbent assay.

Test [4] has as its system 3T3 cells. Description: Cell viability assay (CellTiter-Glo), ABT-263 + S63845. Format: cell-based, murine. The following applies: 1 µM ABT-263 and 1 µM S63845, 24 hr. As to the method:
as §3, §4

Test [5] has as its target T1, BAX in BAK KO MEFs (Mus musculus, UniProt Q07813).
T1 construct: endogenous in cells; host or cells: BAK KO mouse embryonic fibroblasts
Put plainly: Cellular Thermal Shift Assay (CETSA). The test is classed as cell-based. As to conditions: 10 pM EO, 2 hours. The procedure:
BAK KO MEFs were seeded in a 10 cm dish for 18-24 hours or until approximately 80% confluent. The media was removed and replaced with media lacking FBS, and cells were treated with 10 pM EO as a 10X stock in H2O or vehicle for 2 hours. The media was then removed, and cells were harvested using a cell scraper and washed twice with PBS. Cells were then resuspended in PBS to 6×10^6 cells/mL, and […] was transferred to PCR tubes. Cells were then heated in a Biorad C1000 Touch Thermal Cycler for 3 minutes using a temperature gradient (50, 52.1, 55.4, 59.4, 64.9, 69.2, 72.1, and 74° C.). Cells remaining at room temperature (25° C.) served as a control. All cells were lysed by three cycles of freeze-thawing using liquid nitrogen. Samples were then centrifuged at 2×10^4 g for 15 minutes. The supernatants were collected and resolved by SDS-PAGE with an N-terminal BAX antibody (Cell Signaling, 2772S). Samples were analyzed and quantified using a Li-Cor Odyssey Clx and normalized to 25° C. (100%) and 74° C.(0%).
To confirm direct engagement of BAX, Cellular Thermal Shift Assay (CETSA) was performed in BAK KO MEFs.

In test [6] the test system is BAK-/- mouse embryonic fibroblasts (MEFs). Put plainly: Caspase 3/7 assay, STS-induced apoptosis, MEFs expressing only BAX. The test is classed as cell-based. The following applies: 3 µM STS, 6 hr.
Excerpt: as §1, §2

For test [7], the system named is megakaryocyte precursors and progenitor cells. The following applies: differentiation of megakaryocyte precursors and progenitor cells; cited from earlier work.
Test [8] concerns BAK KO MEFs. Description: Mitochondrial translocation of cytosolic BAX in cells. The test is classed as cell-based, mouse. As to conditions: BIM BH3 or 2 µM staurosporine (STS); 10 or 20 µM EO.
Excerpt: as §1, §2

We go through one molecule from US20230270721A1, “INHIBITION OF BAX-MEDIATED CELL DEATH BY ELTROMBOPAG” (Albert Einstein College of Medicine, priority 2020, published 2023).

Molecules are shown by their SMILES.

T1 sequence (Q07813 whole entry): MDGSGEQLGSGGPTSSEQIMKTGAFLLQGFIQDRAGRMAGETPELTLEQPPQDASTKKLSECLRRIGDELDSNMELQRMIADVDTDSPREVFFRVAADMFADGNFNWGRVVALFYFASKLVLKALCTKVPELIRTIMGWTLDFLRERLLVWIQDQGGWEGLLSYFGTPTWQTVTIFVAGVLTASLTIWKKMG

On to `CC1=NN(c2ccc(C)c(C)c2)C(=O)/C1=N\Nc1cccc(-c2cccc(C(=O)O)c2)c1O` [EO, eltrombopag], for which the “STS-induced apoptosis mediated by caspase 3/7 activity” value in test [1] was “no effect”; in test [6] it was “inhibited STS-induced apoptosis”. In addition, the “apoptosis mediated by caspase 3/7 activity” value in test [2] is “significant reduction of apoptosis”. Besides, the “BIM-BH3 induced release of cytochrome c” value in test [3] is on record as “significantly inhibited”. The cell viability entry in test [4] was “dose-dependent rescue of cell viability”. The “lowering of BAX TM (CETSA)” value in test [5] came out at 9 °C. For the same molecule, the “time for stimulation of platelet production to begin” value in test [7] was 5 days. Besides, in test [8], the “mitochondrial translocation of cytosolic BAX” value is recorded as “capable of inhibiting BAX translocation”.
